Measurements published in EP4745137A1 (Gluetacs Therapeutics (Shanghai) Co., Ltd., priority 2023, dated 2025).

Tests used:
[1] = target: T1, human Cereblon WT GST-tagged protein (Homo sapiens, UniProt Q96SW2); experiment: CRBN-binding affinity by HTRF (CEREBLON BINDING kit); conditions: HTRF inhibitory activity, CEREBLON BINDING kit; read-out: HTRF IC50
T1 construct: purchased CISBIO 64BDCRBNPEH
Procedure: The CEREBLON BINDING kits (specification: 10,000 tests; product number: Catalog # 64BDCRBNPEH; CISBIO company) was used to determine the CRBN binding ability of the compounds to be tested through a HTRF method (homogeneous time-resolved fluorescence). The specific methods are as follows: • 1. […] Specifically, diluent #9 (1X) solution was used as the diluent, and multiple concentration gradients were set. […] Then, 2.5 µL of human Cereblon WT GST-tagged protein solution was added to each well. Finally, 5 µL of the thoroughly mixed Thalidomide-Re reagent and GST Eu antibody working solution were added to each of the aforementioned wells. […] The blank control wells were sequentially added with 2.5 µL of diluent #9 (1X) solution, 2.5 µL of binding buffer, and 5 µL of thoroughly mixed Thalidomide-Re reagent and GST Eu antibody working solution. • 4.

IKZF3 = target: T2, IKZF3 (Homo sapiens, UniProt Q96SW2+Q9UKT9); experiment: Western-blot assay of substrate protein degradation in hPBMCs, IKZF3; format: cell-based; conditions: 24 hours of compound treatment
T2 construct: endogenous in cells; host or cells: hPBMCs (Milecell Biotechnologies)

CK1α = target: T3, CK1α (Homo sapiens, UniProt P48729+Q96SW2); experiment: Western-blot assay of substrate protein degradation in hPBMCs, CK1α; format: cell-based; conditions: 24 hours of compound treatment
T3 construct: endogenous in cells; host or cells: hPBMCs (Milecell Biotechnologies)

IKZF2 = target: T4, IKZF2 (Homo sapiens, UniProt Q96SW2+Q9UKS7); experiment: Western-blot assay of substrate protein degradation in hPBMCs, IKZF2; format: cell-based; conditions: 24 hours of compound treatment
T4 construct: endogenous in cells; host or cells: hPBMCs (Milecell Biotechnologies)

IKZF1 = target: T5, IKZF1 (Homo sapiens, UniProt Q13422+Q96SW2); experiment: Western-blot assay of substrate protein degradation in hPBMCs, IKZF1; format: cell-based; conditions: 24 hours of compound treatment
T5 construct: endogenous in cells; host or cells: hPBMCs (Milecell Biotechnologies)

WEE1 = target: T6, WEE1 (Homo sapiens, UniProt P30291+Q96SW2); experiment: Western-blot assay of substrate protein degradation in hPBMCs, WEE1; format: cell-based; conditions: 24 hours of compound treatment
T6 construct: endogenous in cells; host or cells: hPBMCs (Milecell Biotechnologies)

GSPT1 = target: T7, GSPT1 (Homo sapiens, UniProt P15170+Q96SW2); experiment: Western-blot assay of substrate protein degradation in hPBMCs, GSPT1; format: cell-based; conditions: 24 hours of compound treatment
T7 construct: endogenous in cells; host or cells: hPBMCs (Milecell Biotechnologies)

[2] = 50 nM and 500 nM tested (concentration behind the class not stated)
[3] = compounds tested at 50 nM and 500 nM (concentration of the table not stated)

T1 sequence (Q96SW2 whole entry): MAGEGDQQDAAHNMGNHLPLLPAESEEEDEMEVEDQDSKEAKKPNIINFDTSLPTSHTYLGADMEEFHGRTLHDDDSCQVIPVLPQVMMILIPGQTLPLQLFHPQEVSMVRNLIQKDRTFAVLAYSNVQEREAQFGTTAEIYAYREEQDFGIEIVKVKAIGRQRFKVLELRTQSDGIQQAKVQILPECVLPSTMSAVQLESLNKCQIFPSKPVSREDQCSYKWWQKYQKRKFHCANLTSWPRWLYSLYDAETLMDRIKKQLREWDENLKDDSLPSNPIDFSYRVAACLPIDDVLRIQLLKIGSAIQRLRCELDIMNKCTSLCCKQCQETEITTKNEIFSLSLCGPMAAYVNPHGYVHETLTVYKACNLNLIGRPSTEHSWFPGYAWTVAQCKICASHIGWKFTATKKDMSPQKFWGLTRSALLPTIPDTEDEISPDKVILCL
T3 sequence (P48729 whole entry): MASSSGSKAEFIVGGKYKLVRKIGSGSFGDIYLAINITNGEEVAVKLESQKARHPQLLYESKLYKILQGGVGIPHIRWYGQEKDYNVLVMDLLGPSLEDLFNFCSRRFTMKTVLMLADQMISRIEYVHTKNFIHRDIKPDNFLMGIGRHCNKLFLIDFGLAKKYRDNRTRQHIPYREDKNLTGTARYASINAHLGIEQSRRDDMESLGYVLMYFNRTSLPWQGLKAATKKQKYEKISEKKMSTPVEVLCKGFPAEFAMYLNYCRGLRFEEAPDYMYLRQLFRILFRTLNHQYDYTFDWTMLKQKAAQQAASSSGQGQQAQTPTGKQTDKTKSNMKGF
T3 sequence (Q96SW2 whole entry): as the sequence (Q96SW2 whole entry) above
T3 sequence (Q16531 whole entry partner): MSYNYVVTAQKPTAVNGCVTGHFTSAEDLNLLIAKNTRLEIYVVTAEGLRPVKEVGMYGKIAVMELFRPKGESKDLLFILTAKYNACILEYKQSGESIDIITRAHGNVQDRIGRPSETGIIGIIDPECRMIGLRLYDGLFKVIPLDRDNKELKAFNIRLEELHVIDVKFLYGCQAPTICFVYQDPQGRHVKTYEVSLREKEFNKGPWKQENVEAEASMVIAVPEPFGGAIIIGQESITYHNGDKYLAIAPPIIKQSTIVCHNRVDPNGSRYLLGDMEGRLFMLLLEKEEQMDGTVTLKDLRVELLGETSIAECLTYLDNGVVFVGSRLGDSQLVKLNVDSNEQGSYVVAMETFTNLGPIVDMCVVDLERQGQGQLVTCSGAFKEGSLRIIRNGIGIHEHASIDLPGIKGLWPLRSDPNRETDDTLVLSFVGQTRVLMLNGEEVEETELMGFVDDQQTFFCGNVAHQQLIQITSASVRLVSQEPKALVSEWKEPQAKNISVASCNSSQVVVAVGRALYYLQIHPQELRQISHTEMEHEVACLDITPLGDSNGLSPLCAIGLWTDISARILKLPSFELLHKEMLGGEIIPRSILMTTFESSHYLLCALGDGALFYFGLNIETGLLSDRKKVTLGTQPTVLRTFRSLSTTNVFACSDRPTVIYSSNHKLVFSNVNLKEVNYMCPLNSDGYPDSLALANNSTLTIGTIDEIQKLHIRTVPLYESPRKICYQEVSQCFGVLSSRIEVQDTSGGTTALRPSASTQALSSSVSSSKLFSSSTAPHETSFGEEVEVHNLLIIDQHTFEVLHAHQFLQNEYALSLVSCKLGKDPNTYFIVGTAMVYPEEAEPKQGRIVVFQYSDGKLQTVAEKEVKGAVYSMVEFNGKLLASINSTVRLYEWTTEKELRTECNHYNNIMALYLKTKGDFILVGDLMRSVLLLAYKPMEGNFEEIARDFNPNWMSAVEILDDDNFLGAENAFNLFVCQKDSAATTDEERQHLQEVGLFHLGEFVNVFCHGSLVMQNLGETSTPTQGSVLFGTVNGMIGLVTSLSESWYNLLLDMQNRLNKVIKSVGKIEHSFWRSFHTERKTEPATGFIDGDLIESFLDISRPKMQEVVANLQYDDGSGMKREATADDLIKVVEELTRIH
T7 sequence (P15170 whole entry): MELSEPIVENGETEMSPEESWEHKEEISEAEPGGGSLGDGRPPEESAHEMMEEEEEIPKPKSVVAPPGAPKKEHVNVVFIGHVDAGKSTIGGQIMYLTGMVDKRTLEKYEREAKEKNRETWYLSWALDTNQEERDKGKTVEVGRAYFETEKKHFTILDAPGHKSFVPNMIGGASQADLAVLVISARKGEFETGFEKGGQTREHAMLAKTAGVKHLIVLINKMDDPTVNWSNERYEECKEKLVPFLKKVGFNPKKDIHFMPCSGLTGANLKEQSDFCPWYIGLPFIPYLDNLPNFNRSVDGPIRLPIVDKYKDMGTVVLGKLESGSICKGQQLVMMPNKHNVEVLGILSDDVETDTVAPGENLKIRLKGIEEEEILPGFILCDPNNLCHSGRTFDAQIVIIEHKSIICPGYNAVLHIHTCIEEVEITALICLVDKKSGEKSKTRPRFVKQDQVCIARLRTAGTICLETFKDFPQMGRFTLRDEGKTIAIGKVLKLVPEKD
T7 sequence (Q96SW2 whole entry): as the sequence (Q96SW2 whole entry) above
T7 sequence (Q16531 whole entry partner): as the sequence (Q16531 whole entry partner) above
T2 sequence (Q9UKT9 whole entry): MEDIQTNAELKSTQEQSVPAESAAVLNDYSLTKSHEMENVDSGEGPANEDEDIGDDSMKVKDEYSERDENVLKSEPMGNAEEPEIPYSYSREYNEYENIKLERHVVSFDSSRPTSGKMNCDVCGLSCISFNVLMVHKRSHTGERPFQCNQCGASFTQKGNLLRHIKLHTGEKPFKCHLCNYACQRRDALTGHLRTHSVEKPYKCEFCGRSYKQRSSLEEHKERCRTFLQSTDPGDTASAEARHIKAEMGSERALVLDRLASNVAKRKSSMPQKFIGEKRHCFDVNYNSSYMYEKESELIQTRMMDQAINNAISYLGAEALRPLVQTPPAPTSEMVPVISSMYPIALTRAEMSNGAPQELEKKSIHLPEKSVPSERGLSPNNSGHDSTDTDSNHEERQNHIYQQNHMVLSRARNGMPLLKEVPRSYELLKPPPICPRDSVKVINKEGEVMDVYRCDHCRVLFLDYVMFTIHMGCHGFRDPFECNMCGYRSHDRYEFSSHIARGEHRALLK
T2 sequence (Q96SW2 whole entry): as the sequence (Q96SW2 whole entry) above
T2 sequence (Q16531 whole entry partner): as the sequence (Q16531 whole entry partner) above
T5 sequence (Q13422 whole entry): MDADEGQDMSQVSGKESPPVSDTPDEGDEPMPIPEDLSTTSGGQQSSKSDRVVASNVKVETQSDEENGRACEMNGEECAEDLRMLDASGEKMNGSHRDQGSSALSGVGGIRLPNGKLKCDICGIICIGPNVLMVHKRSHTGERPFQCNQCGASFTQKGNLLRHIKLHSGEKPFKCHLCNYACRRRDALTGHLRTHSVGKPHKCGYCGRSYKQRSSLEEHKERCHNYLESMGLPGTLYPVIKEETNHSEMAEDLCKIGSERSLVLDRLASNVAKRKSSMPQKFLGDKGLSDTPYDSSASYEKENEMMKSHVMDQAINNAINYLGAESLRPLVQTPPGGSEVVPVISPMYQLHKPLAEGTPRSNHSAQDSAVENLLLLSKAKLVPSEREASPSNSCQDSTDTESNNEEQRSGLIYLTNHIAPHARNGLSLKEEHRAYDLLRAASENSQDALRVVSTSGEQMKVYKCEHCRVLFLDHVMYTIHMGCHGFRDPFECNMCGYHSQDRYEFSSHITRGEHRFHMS
T5 sequence (Q96SW2 whole entry): as the sequence (Q96SW2 whole entry) above
T5 sequence (Q16531 whole entry partner): as the sequence (Q16531 whole entry partner) above
T4 sequence (Q9UKS7 whole entry): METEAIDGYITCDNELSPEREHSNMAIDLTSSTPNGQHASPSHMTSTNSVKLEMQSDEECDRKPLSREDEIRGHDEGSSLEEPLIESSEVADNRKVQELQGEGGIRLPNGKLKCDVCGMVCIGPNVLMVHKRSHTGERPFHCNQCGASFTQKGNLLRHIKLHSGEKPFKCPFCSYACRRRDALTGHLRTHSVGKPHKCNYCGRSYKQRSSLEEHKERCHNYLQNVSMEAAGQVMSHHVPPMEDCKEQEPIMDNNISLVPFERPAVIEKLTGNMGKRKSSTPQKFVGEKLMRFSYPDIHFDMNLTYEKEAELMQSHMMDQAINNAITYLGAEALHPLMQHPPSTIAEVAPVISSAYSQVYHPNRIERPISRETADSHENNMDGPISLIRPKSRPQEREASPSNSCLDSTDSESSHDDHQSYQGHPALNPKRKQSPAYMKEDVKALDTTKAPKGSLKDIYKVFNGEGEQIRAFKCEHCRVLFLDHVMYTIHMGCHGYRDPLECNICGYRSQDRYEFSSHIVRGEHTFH
T4 sequence (Q96SW2 whole entry): as the sequence (Q96SW2 whole entry) above
T4 sequence (Q16531 whole entry partner): as the sequence (Q16531 whole entry partner) above

Structure (SMILES) | IC50 [1] | IKZF3 substrate protein remaining % (IKZF3; [2]) | CK1a substrate protein remaining % (CK1α; [2]) | IKZF2 substrate protein remaining % (IKZF2; [2]) | IKZF 1 substrate protein remaining % (IKZF1; [2]) | Weel substrate protein remaining % (WEE1; [2]) | GSPT1 substrate protein remaining % (GSPT1; [2]) | IKZF3 substrate protein remaining % (IKZF3; [3]) | CK1a substrate protein remaining % (CK1α; [3]) | IKZF2 substrate protein remaining % (IKZF2; [3]) | IKZF 1 substrate protein remaining % (IKZF1; [3]) | Weel substrate protein remaining % (WEE1; [3]) | GSPT1 substrate protein remaining % (GSPT1; [3])
CC(C)c1cc2c(N3CCN(Cc4ccc5c(c4)C(=O)N(C4CCC(=O)NC4=O)C5=O)CC3)ncnc2s1 (stereo not drawn) [GT-06306, 2-(2,6-dioxopiperidin-3-yl)-5-((4-(6-isopropylthieno[2,3-d]pyrimidin-4-yl)piperazin-1-yl)methyl)isoindoline-1,3-dione] | 1500 to 1900 nM | A (0% ≤ substrate protein remaining % ≤ 80%) | A (0% ≤ substrate protein remaining % ≤ 80%) | A (0% ≤ substrate protein remaining % ≤ 80%) | A (0% ≤ substrate protein remaining % ≤ 80%) | B (80%< substrate protein remaining %≤ 100%) | A (0% ≤ substrate protein remaining % ≤ 80%) | – | – | – | – | – | –
O=C1CCC(N2Cc3cc(CN4CCN(c5noc6cc(F)ccc56)CC4)ccc3C2=O)C(=O)N1 (stereo not drawn) [GT-04667, 3-(5-((4-(6-fluorobenzo[d]isoxazol-3-yl)piperazin-1-yl)methyl)-1-oxoisoindolin-2-yl)piperidine-2,6-dione] | 500 to 1000 nM | – | – | – | – | – | – | A (0% ≤ substrate protein remaining % ≤ 80%) | B (80%< substrate protein remaining %≤ 100%) | A (0% ≤ substrate protein remaining % ≤ 80%) | A (0% ≤ substrate protein remaining % ≤ 80%) | A (0% ≤ substrate protein remaining % ≤ 80%) | A (0% ≤ substrate protein remaining % ≤ 80%)
O=C1CCC(N2Cc3cc(CN4CCC(c5ccoc5)CC4)ccc3C2=O)C(=O)N1 (stereo not drawn) [GT-04590, 3-(5-((4-(furan-3-yl)piperidin-1-yl)methyl)-1-oxoisoindolin-2-yl)piperidine-2,6-dione] | 1000 to 1500 nM | – | – | – | – | – | – | B (80%< substrate protein remaining %≤ 100%) | B (80%< substrate protein remaining %≤ 100%) | A (0% ≤ substrate protein remaining % ≤ 80%) | B (80%< substrate protein remaining %≤ 100%) | B (80%< substrate protein remaining %≤ 100%) | A (0% ≤ substrate protein remaining % ≤ 80%)
O=C1CCC(N2Cc3cc(CN4CC=C(c5ncnc6scc(-c7ccccc7)c56)CC4)ccc3C2=O)C(=O)N1 (stereo not drawn) [GT-04908, 3-(1-oxo-5-((4-(5-phenylthieno[2,3-d]pyrimidin-4-yl)-3,6-dihydropyridin-1(2H)-yl)methyl)isoindolin-2-yl)piperidine-2,6-dione] | < 500 nM | – | – | – | – | – | – | A (0% ≤ substrate protein remaining % ≤ 80%) | B (80%< substrate protein remaining %≤ 100%) | A (0% ≤ substrate protein remaining % ≤ 80%) | A (0% ≤ substrate protein remaining % ≤ 80%) | A (0% ≤ substrate protein remaining % ≤ 80%) | A (0% ≤ substrate protein remaining % ≤ 80%)
O=C1CCC(N2Cc3cc(CN4CCC(c5ccnc6cc(F)ccc56)CC4)ccc3C2=O)C(=O)N1 (stereo not drawn) [GT-04648, 3-(5-((4-(7-fluoroquinolin-4-yl)piperidin-1-yl)methyl)-1-oxoisoindolin-2-yl)piperidine-2,6-dione] | 500 to 1000 nM | – | – | – | – | – | – | A (0% ≤ substrate protein remaining % ≤ 80%) | B (80%< substrate protein remaining %≤ 100%) | A (0% ≤ substrate protein remaining % ≤ 80%) | A (0% ≤ substrate protein remaining % ≤ 80%) | B (80%< substrate protein remaining %≤ 100%) | A (0% ≤ substrate protein remaining % ≤ 80%)
O=C1CCC(N2Cc3cc(CN4CCN(c5cccnc5)CC4)ccc3C2=O)C(=O)N1 (stereo not drawn) [GT-04508, 3-(1-oxo-5-((4-(pyridin-3-yl)piperazin-1-yl)methyl)isoindolin-2-yl)piperidine-2,6-dione] | 500 to 1000 nM | – | – | – | – | – | – | A (0% ≤ substrate protein remaining % ≤ 80%) | B (80%< substrate protein remaining %≤ 100%) | A (0% ≤ substrate protein remaining % ≤ 80%) | A (0% ≤ substrate protein remaining % ≤ 80%) | A (0% ≤ substrate protein remaining % ≤ 80%) | A (0% ≤ substrate protein remaining % ≤ 80%)
O=C1CCC(N2Cc3cc(CN4CCN(c5ccnc(Cl)c5Cl)CC4)ccc3C2=O)C(=O)N1 (stereo not drawn) [GT-04542, 3-(5-((4-(2,3-dichloropyridin-4-yl)piperazin-1-yl)methyl)-1-oxoisoindolin-2-yl)piperidine-2,6-dione] | < 500 nM | – | – | – | – | – | – | A (0% ≤ substrate protein remaining % ≤ 80%) | B (80%< substrate protein remaining %≤ 100%) | A (0% ≤ substrate protein remaining % ≤ 80%) | A (0% ≤ substrate protein remaining % ≤ 80%) | A (0% ≤ substrate protein remaining % ≤ 80%) | A (0% ≤ substrate protein remaining % ≤ 80%)
O=C1CCC(N2Cc3cc(CN4CCC(c5ncnc6sc7c(c56)CCC7)CC4)ccc3C2=O)C(=O)N1 (stereo not drawn) [GT-04994, 3-(5-((4-(6,7-dihydro-5H-cyclopenta[4,5]thieno[2,3-d]pyrimidin-4-yl)piperidin-1-yl)methyl)-1-oxoisoindolin-2-yl)piperidine-2,6-dione] | < 500 nM | – | – | – | – | – | – | A (0% ≤ substrate protein remaining % ≤ 80%) | B (80%< substrate protein remaining %≤ 100%) | A (0% ≤ substrate protein remaining % ≤ 80%) | A (0% ≤ substrate protein remaining % ≤ 80%) | A (0% ≤ substrate protein remaining % ≤ 80%) | B (80%< substrate protein remaining %≤ 100%)
O=C1CCC(N2Cc3cc(CN4CC5CC(C4)N5c4cccc(Cl)c4Cl)ccc3C2=O)C(=O)N1 (stereo not drawn) [GT-04897, 3-(5-((6-(2,3-dichlorophenyl)-3,6-diazabicyclo[3.1.1]heptan-3-yl)methyl)-1-oxoisoindolin-2-yl)piperidine-2,6-dione] | 1500 to 1900 nM | – | – | – | – | – | – | B (80%< substrate protein remaining %≤ 100%) | B (80%< substrate protein remaining %≤ 100%) | B (80%< substrate protein remaining %≤ 100%) | B (80%< substrate protein remaining %≤ 100%) | B (80%< substrate protein remaining %≤ 100%) | A (0% ≤ substrate protein remaining % ≤ 80%)
O=C1CCC(N2Cc3cc(CN4CCc5sccc5C4)ccc3C2=O)C(=O)N1 (stereo not drawn) [GT-04200, 3-(5-((6,7-dihydrothieno[3,2-c]pyridin-5(4H)-yl)methyl)-1-oxoisoindolin-2-yl)piperidine-2,6-dione] | 500 to 1000 nM | – | – | – | – | – | – | A (0% ≤ substrate protein remaining % ≤ 80%) | B (80%< substrate protein remaining %≤ 100%) | A (0% ≤ substrate protein remaining % ≤ 80%) | B (80%< substrate protein remaining %≤ 100%) | A (0% ≤ substrate protein remaining % ≤ 80%) | B (80%< substrate protein remaining %≤ 100%)
O=C1CCC(N2C(=O)c3ccc(CN4CC=C(c5ccoc5)CC4)cc3C2=O)C(=O)N1 (stereo not drawn) [GT-06223, 2-(2,6-dioxopiperidin-3-yl)-5-((4-(furan-3-yl)-3,6-dihydropyridin-1(2H)-yl)methyl)isoindoline-1,3-dione] | 1000 to 1500 nM | A (0% ≤ substrate protein remaining % ≤ 80%) | A (0% ≤ substrate protein remaining % ≤ 80%) | B (80%< substrate protein remaining %≤ 100%) | A (0% ≤ substrate protein remaining % ≤ 80%) | A (0% ≤ substrate protein remaining % ≤ 80%) | A (0% ≤ substrate protein remaining % ≤ 80%) | – | – | – | – | – | –
Cc1cc2c(N3CCN(Cc4ccc5c(c4)CN(C4CCC(=O)NC4=O)C5=O)CC3)ncnc2s1 (stereo not drawn) [GT-04680, 3-(5-((4-(6-methylthieno[2,3-d]pyrimidin-4-yl)piperazin-1-yl)methyl)-1-oxoisoindolin-2-yl)piperidine-2,6-dione] | 500 to 1000 nM | – | – | – | – | – | – | B (80%< substrate protein remaining %≤ 100%) | A (0% ≤ substrate protein remaining % ≤ 80%) | B (80%< substrate protein remaining %≤ 100%) | B (80%< substrate protein remaining %≤ 100%) | B (80%< substrate protein remaining %≤ 100%) | A (0% ≤ substrate protein remaining % ≤ 80%)
